Values quoted from earlier work as cited in patent publication US20240091144A1, “MULTI-LAYER ORAL THIN FILM” (LTS Lohmann Therapie-Systeme AG, priority 2021, published 2024).

Columns and labels:
[1] = compared with (R)-ketamine
[2] = at 20° C.

| SMILES | analgesic and anaesthetic potency relative to the (R) form [1] | pKs [2] |
| --- | --- | --- |
| CNC1(c2ccccc2Cl)CCCCC1=O (racemic) [(S)-ketamine, (S)-(±)-2-(2-chlorophenyl)-2-(methylamino)cyclohexan-1-one] | approximately three times higher | – |
| NC(CO)(CO)CO [TRIS, tris(hydroxymethyl)aminomethane] | – | 8.2 |
